Non-standard residues stand in square brackets, D forms with d. Residues, ends and D or L forms follow the SMILES beside them. *: point of attachment. Pro(4R-Me) = C[C@H]1CN[C@H](C(=O)O)C1; Oleoyl = CCCCCCCC/C=C\CCCCCCCC(=O)*; hSer = N[C@@H](CCO)C(=O)O
Columns and labels:
[1] = Cytotoxicity against African green monkey Vero cells; type: cell-based; conditions: chlorocebus sabaeus
[2] = Inhibition of Protein E in Zika virus infected in African green monkey Vero cells assessed as antiviral activity preincubated for 1 hr followed by viral infection and measured 24 hr post infection by plaque assay; type: cell-based
[3] = Cytotoxicity against human JEG3 cells by alamarBlue assay; type: cell-based; conditions: JEG-3 cells
Zika virus [4] = experiment: Antiviral activity against Zika virus PRVABC59 Puerto Rico infected in human JEG3 cells after 24 hrs by plaque assay; type: functional, organism-based; conditions: JEG-3, 24 h
[5] = Cytotoxicity against human A549 cells; type: cell-based
Zika virus [6] = experiment: Antiviral activity against Zika virus infected in human A549 cells; type: functional, organism-based
[7] = Cytotoxicity against HBMEC after 5 days by CellTiter Blue assay; conditions: human
[8] = Cytotoxicity against human NSC after 5 days by CellTiter Blue assay; type: cell-based; conditions: NSC cells
[9] = Cytotoxicity against African green monkey Vero cells after 5 days by CellTiter Blue assay; type: cell-based; conditions: chlorocebus sabaeus
Zika virus [10] = experiment: Antiviral activity against Zika virus MR 766 infected in human NSC measured 5 days post infection by CellTiter Blue assay; type: functional, organism-based; conditions: MR 766, 120 h
Zika virus [11] = experiment: Antiviral activity against Zika virus MR 766 infected in HBMEC measured 5 days post infection by CellTiter Blue assay; type: functional, organism-based; conditions: MR 766, 120 h
Zika virus [12] = experiment: Antiviral activity against Zika virus MR 766 infected in African green monkey Vero cells measured 5 days post infection by CellTiter Blue assay; type: functional, organism-based; conditions: MR 766, Vero, 120 h
[13] = Cytotoxicity against human HuH7 cells by MTS assay; type: cell-based; conditions: Huh-7 cells
[14] = (§1) Inhibition of IMPDH in Zika virus MR766 infected in human HuH7 cells assessed as antiviral activity by measuring reduction in viral replication preincubated for 12 hrs followed by viral infection and measured day 2 post infection by qRT-PCR method; type: cell-based; conditions: MR766, Huh-7
Zika virus [15] = experiment: as §1; type: cell-based
[16] = Activation of AMPK in African green monkey Vero cells infected with Zika virus PA259459 assessed as antiviral activity measured 24 hrs post infection by plaque assay; type: cell-based; conditions: Chlorocebus aethiops
[17] = Cytotoxicity against HBMEC after 24 hrs by resazurin-dye based Alamar blue assay; conditions: human
[18] = Inhibition of DHFR in Zika virus Mex2-81 infected in HBMEC assessed as antiviral activity incubated for 24 hrs
Zika virus [19] = experiment: Antiviral activity against Zika virus infected in African green monkey Vero cells after 72 hrs by DAPI-staining based assay; type: functional, organism-based
Zika virus [20] = experiment: Antiviral activity against Zika virus H/PAN/2016/BEI-259634 infected in human NSC by CellTiter-Glo assay; type: functional, organism-based
[21] = Cytotoxicity against human NSC; type: cell-based; conditions: NSC cells
Zika virus [22] = experiment: Antiviral activity against Zika virus infected in African green monkey Vero E6 cells assessed as reduction in virus infectivity preincubated with virus for 1 hr followed by cell infection and measured after 96 hrs by crystal violet staining based assay; type: functional, organism-based; conditions: Vero C1008
Zika virus [23] = experiment: Antiviral activity against Zika virus infected in African green monkey Vero E6 cells assessed as reduction in virus infectivity at 40 uM preincubated with virus for 1 hr followed by cell infection and measured after 96 hrs by crystal violet staining based assay relative to control; type: functional; conditions: Vero C1008
[24] = Cytotoxicity against African green monkey Vero E6 cells measured up to 24 to 72 hrs by MTT assay; type: cell-based, Vero C1008; conditions: chlorocebus sabaeus
Zika virus [25] = experiment: Antiviral activity against Zika virus infected in African green monkey Vero E6 cells assessed as reduction in virus infectivity at 160 uM preincubated with virus for 1 hr followed by cell infection and measured after 96 hrs by crystal violet staining based assay relative to control; type: functional; conditions: Vero C1008

CC[C@H](C)[C@H](NC(=O)[C@H](CO)NC(=O)CNC(=O)[C@H](Cc1ccccc1)NC(=O)[C@H](CC(=O)O)NC(=O)[C@H](Cc1c[nH]c2ccccc12)NC(=O)[C@H](C)N)C(=O)NCC(=O)NCC(=O)N[C@H](C(=O)N[C@@H](Cc1ccccc1)C(=O)N[C@@H](CC(N)=O)C(=O)N[C@@H](CO)C(=O)N[C@H](C(=O)NCC(=O)N[C@@H](CCCCN)C(=O)N[C@@H](C)C(=O)N[C@H](C(=O)N[C@@H](Cc1cnc[nH]1)C(=O)N[C@@H](CCC(N)=O)C(=O)N[C@H](C(=O)N[C@@H](Cc1ccccc1)C(=O)O)C(C)C)C(C)C)[C@@H](C)CC)C(C)C
CC50 [1]: > 10 µM
EC50 [2]: 3.27 µM

O=C1C[C@@H](c2ccccc2)Oc2cc(O)cc(O)c21 [PINOCEMBRIN]
CC50 [3]: 251 µM
EC50 (Zika virus [4]): 17.4 µM

CCCCCCCC/C=C\CCCCCCCC(=O)N[C@H](C(=O)N1C[C@H](C)C[C@H]1C(=O)N[C@H](C(=O)N[C@@H](CCO)C(=O)N[C@@H](C)C=O)C(C)C)[C@@H](C)O (Oleoyl-T[Pro(4R-Me)]V[hSer]A-aldehyde)
CC50 [5]: 1.65 µM
EC50 (Zika virus [6]): 0.15 µM

CCN(CC)CCCC(C)Nc1ccnc2cc(Cl)ccc12 (stereo not drawn) [CHLOROQUINE]
CC50 at 120 h [7]: 95 to 135 µM
CC50 at 120 h [8]: 95 to 135 µM
CC50 at 120 h [9]: 95 to 135 µM
EC50 (Zika virus [10]): 9.82 to 14.2 µM
EC50 (Zika virus [11]): 9.82 to 14.2 µM
EC50 (Zika virus [12]): 9.82 to 14.2 µM

COc1cc(NC(=O)Nc2cccc(CNC(=O)O[C@H]3CCOC3)c2)ccc1-c1cnco1 [MERIMEPODIB]
CC50 [13]: > 10 µM
EC50 [14]: 0.6 µM
EC90 (Zika virus [15]): 1 µM

O=C(O)c1c[nH]c2cc(Cl)c(-c3ccc(C4(O)CCC4)cc3)cc12
EC50 [16]: 2.6 µM

CN(Cc1cnc2nc(N)nc(N)c2n1)c1ccc(C(=O)N[C@@H](CCC(=O)O)C(=O)O)cc1 [METHOTREXATE]
CC50 at 24 h [17]: > 10 µM
EC50 [18]: 0.28 µM

O=C(c1cc(Cl)cc(Cl)c1O)c1[nH]c(F)c(Br)c1Br
EC50 (Zika virus [19]): 5.95 µM
CC50 [1]: > 100 µM
EC50 (Zika virus [20]): 8.56 µM
CC50 [21]: > 100 µM

Cc1cc(O)c2c(c1)C(=O)c1cc(O)cc(O)c1C2=O [EMODIN]
IC50 (Zika virus [22]): 3.2 µM
inhibition at 40 µM (Zika virus [23]): 88.3%
CC50 [24]: 68.6 µM

COc1ccc2cc3[n+](cc2c1OC)CCc1cc2c(cc1-3)OCO2 [BERBERINE]
inhibition at 160 µM (Zika virus [25]): 77.6%
IC50 (Zika virus [22]): 39.1 µM
CC50 [24]: 221 µM
